# US11116732B2, “Carotenoid-containing cognitive function improving composition for use in exercise therapy for improving cognitive function” (ASTAREAL CO., LTD., priority 2016, dated 2021)
# Key:
# [1] = system: hippocampal gene expression; test: Hippocampal gene expression by DNA microarray and IPA network analysis; assay type: in vivo, mouse
# Source text: (§1) All the mice used in this experiment were divided so that the weight was equalized at the preliminary breeding end point. These were divided into three groups of placebo+rest (CON), placebo+low intensity exercise (ME), and low intensity exercise+0.5% ASX uptake (ME+ASX) (each n=8). Mice were bred each one per a cage.
# The brain was removed two days after 4 weeks training and ASX uptake. The hippocampus was fractionated from the collected brain (Hirano M, Rakwal R, Shibato J, Sawa H, Nagashima K, Ogawa Y, Yoshida Y, Iwahashi H, Niki E, Masuo Y. Proteomics- and transcriptomics-based screening of differentially expressed proteins and genes in brain of Wig rat: a model for attention deficit hyperactivity disorder (ADHD) research. J Proteome Res 7: 2471-2489, 2008). The hippocampus was immediately frozen with liquid nitrogen and stored in a freezer at −80° C. […]
# 3) Hybridization: Samples of fluorescently labeled control group (CON group) and experiment group (ME group, ME+ASX group) are assayed on the same Microarray chip and hybridized with a 60 base pair probe on the slide glass. […] In the program at this time, the color intensity of Cy3 and Cy5 of all the probes was measured. 6) Standardization of data: For standardization of data, LOWESS (locally weighted linear regression) was used, and logarithmic and logarithmic error rates standardized from Cy3 and Cy5 signals were calculated. […]
# [2] = system: adult hippocampal neurogenesis (hippocampal dentate gyrus); test: Adult hippocampal neurogenesis (AHN): immunohistochemical count of Ki67+, BrdU+ and BrdU+/NeuN+ cells after 4 weeks of ASX uptake with or without low intensity exercise; assay type: in vivo, mouse; conditions: for number of newly matured cells (BrdU+/NeuN+), rate of change relative to the CON group / number of proliferating cells (Ki67+), rate of change relative to the CON group / number of viable cells (BrdU+), rate of change relative to the CON group: 4 weeks
# Source text: (§2) For the purpose of clarifying whether or not hippocampal function improving effect is enhanced by low intensity exercise, influence of combined use of low intensity exercise (7 m/min) of VT or less and ASX uptake (0.5% by weight) on AHN and spatial cognitive function was investigated.
# (§3) All the mice used in this experiment were divided so that the weight was equalized at the preliminary breeding end point. These were divided into four groups of placebo+rest (CON), placebo+low intensity exercise (ME), 0.5% ASX uptake+rest (ASX), and the low intensity exercise+0.5% ASX uptake (ME+ASX) (FIG. 5). Mice were bred each one per a cage.
# 0.5% ASX uptake or placebo uptake was carried out.
# The mice in the low intensity exercise group imposed a treadmill running exercise of 7 m/min for 30 minutes a day. Also, the mice in the rest group were placed on the treadmill for equal time with the running exercise training and were not allowed to exercise anything (control experiment). For the running exercise training, a treadmill for small animals (KN-73, Natsume, Japan) was used. In either of the groups, training or control experiment was imposed once a day in the dark period, which became active for mice.
# BrdU (bromodeoxyuridine) is taken up as an analog molecule of thymidine into the cell nucleus at the S phase of the cell cycle and is used to evaluate cell division, proliferation, and subsequent survival. Thus, BrdU (100 mg/kg BW) was intraperitoneally administered to all mice during three days before starting running exercise and 0.5% ASX uptake (FIG. 5). Administration was carried out only once a day (AM8:00).
# Immunohistochemical staining method is a method of labeling and visualizing a target DNA or protein on a tissue utilizing an antigen antibody reaction. In visualization, it is carried out by labelling an enzyme or a fluorescent substance, etc., which is a substance to be a marker, to an antibody which bounds to an antigen, and reacting with the marker to colorize the antibody adhered portion. In this experiment, fluorescent antibody method was used for evaluation of proliferating cells, viable cells and newly matured neurons.
# In this experiment, BrdU was identified for the evaluation of neoplastic cells. For identification, rat anti-BrdU antibody (Rat anti-BrdU, AbD Serotec) was used as a primary antibody and CyTM3 donkey anti-rat IgG antibody (Cy3 Donkey Anti-Rat IgG, JACKSON) was used as a secondary antibody to fluorescently label with red color and visualized. In addition, for identification of mature neurons, mouse anti-NeuN antibody (Mouse Anti-Neuronal Nuclei monoclonal antibody, Chemicon) was used as a primary antibody, and for visualization, a fluorescently labeled secondary antibody AMCA donkey anti-mouse IgG antibody (AMCA Donkey Anti-Mouse IgG, JACKSON) was used and stained to blue color.
# According to this procedure, newly matured cells were evaluated by BrdU+/NeuN+ reaction (red+bluish white). The procedures of the fluorescent antibody method were shown below.
# In this experiment, for evaluation of cell proliferation, it was identified by Ki67. For identification, rabbit anti-Ki67 antibody (Rabbit anti-Ki67, Abcam) was used as a primary antibody, and Alexa 555 anti-rabbit IgG antibody (Goat Alexa 555 anti-rabbit IgG, Biotium) was used as a secondary antibody to fluorescently label with red color and visualized. In addition, for identification of the matured neurons, mouse anti-NeuN antibody (Mouse Anti-Neuronal Nuclei monoclonal antibody, Chemicon) was used as a primary antibody, and for visualization, a fluorescently labeled secondary antibody AMCA donkey anti-mouse IgG antibody (AMCA Donkey Anti-Mouse IgG, JACKSON) was used and stained to blue color. According to this procedure, newly matured cells were evaluated by Ki67+/NeuN+reaction (red+bluish white). The procedures of the fluorescent antibody method were shown below.
# All data were expressed as an average value±standard error of each sample. […]
# [3] = system: spatial learning memory ability; test: Morris water maze (MWM): place learning escape training and probe test; assay type: in vivo, mouse; conditions: for escape time during place learning escape training: P<0.05
# Source text: as §2, §3
# 2-11. Evaluation of Spatial Learning Memory Ability: Morris Water Maze (MWM)
# Evaluation of spatial learning memory ability was carried out.
# Here, in order to clarify whether or not improvement of the hippocampal function due to the low intensity exercise is enhanced by ASX uptake, influence of combined use of the low intensity exercise of VT or less and 0.5% ASX uptake on AHN and spatial learning memory ability was investigated. For the evaluation of AHN, the numbers of proliferating cells (Ki67+), viable cells (BrdU+), and newly matured cells (BrdU+/NeuN+) were counted using immunohistochemical staining method and the result thereof was shown by the rate of change relative to the CON group. Also, the spatial learning memory ability was evaluated using the MWM with regard to acquiring ability (learning) of memory by the place learning escape training for 4 days, and retention and recollection ability of memory by the probe test on the fifth day.
# [4] = system: hippocampal mRNA expression; test: Hippocampal mRNA expression by RT-PCR; assay type: in vivo, mouse
# Source text: as §1
# The brain was removed two days after 4 weeks training and ASX uptake. The hippocampus was fractionated from the collected brain (Hirano M, Rakwal R, Shibato J, Sawa H, Nagashima K, Ogawa Y, Yoshida Y, Iwahashi H, Niki E, Masuo Y. Proteomics- and transcriptomics-based screening of differentially expressed proteins and genes in brain of Wig rat: a model for attention deficit hyperactivity disorder (ADHD) research. J Proteome Res 7: 2471-2489, 2008). The hippocampus was immediately frozen with liquid nitrogen and stored in a freezer at −80° C.
# In order to confirm the reproducibility and validity of the molecular mechanism estimated by the microarray and IPA analysis, 12 genes were picked up and the changes in their gene expression were reexamined by RT-PCR.
# All data were expressed as an average value±standard error. For statistical processing of RT-PCR, after one-way analysis of variance (One-way ANOVA), the Bonferroni's tests method was used as post-hoc. All the significance levels were set to less than 5%.
# [5] = system: nerve injury due to epilepsy; conditions: rat, in vivo; cited from earlier work
# [6] = in vivo; cited from earlier work
# neural progenitor cells = conditions: in vitro; cited from earlier work
# [7] = ASX group compared with the CON group, P<0.05
# [8] = ASX group: 0.5% ASX uptake + rest
# [9] = ME+ASX group: low intensity exercise (7 m/min) + 0.5% ASX uptake
compound,measurement,setting,value
"CC1=C(/C=C/C(C)=C/C=C/C(C)=C/C=C/C=C(C)/C=C/C=C(C)/C=C/C2=C(C)C(=O)[C@@H](O)CC2(C)C)C(C)(C)C[C@H](O)C1=O [ASX, astaxanthin]",Igflr (insulin-like growth factor 1 receptor) gene expression (IPA network analysis),[1]; ME+ASX group only,estimated to enhance
same,Lep and Cxcr4 gene expression (IPA network analysis),"[1]; ME+ASX group, similar to the ME group",enhancement
same,number of BrdU positive cells,[2]; [7],significant increase
same,number of BrdU/NeuN positive cells,[2]; [7],significant increase
same,number of Ki67 positive cells,[2]; [7],significant increase
same,"number of newly matured cells (BrdU+/NeuN+), rate of change relative to the CON group",[2]; [8],+46.3%
same,"number of proliferating cells (Ki67+), rate of change relative to the CON group",[2]; [8],+16.9%
same,"number of viable cells (BrdU+), rate of change relative to the CON group",[2]; [8],+44.9%
same,"effect of the combination of low intensity exercise and ASX uptake on AHN and hippocampal function, against the sum of the ME group and the ASX group",[2]; ME+ASX group,synergistically increases
same,number of Ki67 positive cells,"[2]; ME+ASX group compared with the ME group and the ASX group, P<0.001",significant increase
same,number of BrdU positive cells,"[2]; ME+ASX group compared with the ME group and the ASX group, P<0.05",significant increase
same,"number of newly matured cells (BrdU+/NeuN+), rate of change relative to the CON group",[2]; [9],+102.9%
same,"number of proliferating cells (Ki67+), rate of change relative to the CON group",[2]; [9],+52.3%
same,"number of viable cells (BrdU+), rate of change relative to the CON group",[2]; [9],+95.7%
same,"spatial memory capacity, increase rate for the CON group",[3]; ASX group,25.9%
same,result of the MWM,"[3]; ASX group, 0.5% ASX uptake",significantly improved
same,escape time during place learning escape training,"[3]; ASX group, fourth day",significant shortening
same,probe test: ratio of the cumulative time of swimming within the quadrant where the platform existed to the total swimming time,[3]; [8],30.5%
same,"spatial memory capacity, increase rate for the CON group",[3]; ME+ASX group,60.6%
same,escape time during place learning escape training,"[3]; ME+ASX group compared with the CON, third day",significant shortening
same,probe test: ratio of the cumulative time of swimming within the quadrant where the platform existed to the total swimming time,[3]; ME+ASX group: low intensity exercise + 0.5% ASX uptake,39.9%
same,swimming speed,"[3]; among the groups (CON, ME, ASX, ME+ASX)",no significant difference
same,"mRNA expression of Cxcr4, Stat3, Mapk1 and Jak2",[4]; ME+ASX group (also in the ME group),significantly increased
same,"mRNA expression of Psen1, Notch2, Igflr, Igfl, Pi3k and Creb",[4]; only in the ME+ASX group,increased significantly
same,protection against nerve injury due to epilepsy,[5],protect against nerve injury due to epilepsy
same,passage through the blood brain barrier,[6],moves through the blood brain barrier into the brain
same,proliferation of neural progenitor cells,neural progenitor cells,enhances the proliferation of neural progenitor cells
